“Also recorded” adds a separate entry of the source.
Molecular target: T1, endogenous SREBP-2 and SCAP (Cricetulus griseus, UniProt P97260)
T1 construct: Western blot analysis of endogenous SREBP-2 and SCAP; endogenous in cells; host or cells: CHO-K1
T1 sequence (P97260 1-1276): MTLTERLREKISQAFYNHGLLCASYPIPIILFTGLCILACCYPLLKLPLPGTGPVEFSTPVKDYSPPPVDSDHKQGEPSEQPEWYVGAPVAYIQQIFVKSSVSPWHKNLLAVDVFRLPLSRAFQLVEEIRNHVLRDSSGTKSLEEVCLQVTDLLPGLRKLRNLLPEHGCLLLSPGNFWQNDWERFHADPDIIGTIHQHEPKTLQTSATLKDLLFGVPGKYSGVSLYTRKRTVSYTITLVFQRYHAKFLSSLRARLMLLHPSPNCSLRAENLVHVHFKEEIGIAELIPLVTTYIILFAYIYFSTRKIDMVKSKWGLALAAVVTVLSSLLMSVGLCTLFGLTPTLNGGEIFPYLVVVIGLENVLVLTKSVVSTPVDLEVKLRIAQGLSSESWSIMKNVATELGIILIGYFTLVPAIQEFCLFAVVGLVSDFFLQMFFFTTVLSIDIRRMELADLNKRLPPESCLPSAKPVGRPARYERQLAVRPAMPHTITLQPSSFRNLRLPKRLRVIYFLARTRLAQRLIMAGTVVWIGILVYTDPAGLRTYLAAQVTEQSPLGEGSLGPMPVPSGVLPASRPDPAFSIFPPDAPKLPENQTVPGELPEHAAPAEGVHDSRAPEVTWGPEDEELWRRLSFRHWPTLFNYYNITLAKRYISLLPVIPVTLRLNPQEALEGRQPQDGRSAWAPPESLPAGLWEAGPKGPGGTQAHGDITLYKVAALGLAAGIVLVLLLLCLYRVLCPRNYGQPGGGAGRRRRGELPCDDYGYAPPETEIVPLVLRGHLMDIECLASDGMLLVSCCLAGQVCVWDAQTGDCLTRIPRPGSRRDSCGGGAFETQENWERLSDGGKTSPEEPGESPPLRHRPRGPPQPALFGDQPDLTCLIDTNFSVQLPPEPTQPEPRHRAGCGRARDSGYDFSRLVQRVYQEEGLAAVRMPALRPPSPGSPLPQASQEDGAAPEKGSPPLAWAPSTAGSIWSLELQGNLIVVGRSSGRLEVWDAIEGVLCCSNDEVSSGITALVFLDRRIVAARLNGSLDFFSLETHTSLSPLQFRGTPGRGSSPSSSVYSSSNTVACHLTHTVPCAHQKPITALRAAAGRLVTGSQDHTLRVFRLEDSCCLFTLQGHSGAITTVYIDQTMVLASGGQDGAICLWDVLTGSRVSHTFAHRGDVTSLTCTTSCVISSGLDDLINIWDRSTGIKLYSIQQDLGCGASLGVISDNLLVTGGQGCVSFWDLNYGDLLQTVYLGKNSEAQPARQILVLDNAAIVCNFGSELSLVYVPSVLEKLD
T1 sequence (Q60429 1-1139 partner): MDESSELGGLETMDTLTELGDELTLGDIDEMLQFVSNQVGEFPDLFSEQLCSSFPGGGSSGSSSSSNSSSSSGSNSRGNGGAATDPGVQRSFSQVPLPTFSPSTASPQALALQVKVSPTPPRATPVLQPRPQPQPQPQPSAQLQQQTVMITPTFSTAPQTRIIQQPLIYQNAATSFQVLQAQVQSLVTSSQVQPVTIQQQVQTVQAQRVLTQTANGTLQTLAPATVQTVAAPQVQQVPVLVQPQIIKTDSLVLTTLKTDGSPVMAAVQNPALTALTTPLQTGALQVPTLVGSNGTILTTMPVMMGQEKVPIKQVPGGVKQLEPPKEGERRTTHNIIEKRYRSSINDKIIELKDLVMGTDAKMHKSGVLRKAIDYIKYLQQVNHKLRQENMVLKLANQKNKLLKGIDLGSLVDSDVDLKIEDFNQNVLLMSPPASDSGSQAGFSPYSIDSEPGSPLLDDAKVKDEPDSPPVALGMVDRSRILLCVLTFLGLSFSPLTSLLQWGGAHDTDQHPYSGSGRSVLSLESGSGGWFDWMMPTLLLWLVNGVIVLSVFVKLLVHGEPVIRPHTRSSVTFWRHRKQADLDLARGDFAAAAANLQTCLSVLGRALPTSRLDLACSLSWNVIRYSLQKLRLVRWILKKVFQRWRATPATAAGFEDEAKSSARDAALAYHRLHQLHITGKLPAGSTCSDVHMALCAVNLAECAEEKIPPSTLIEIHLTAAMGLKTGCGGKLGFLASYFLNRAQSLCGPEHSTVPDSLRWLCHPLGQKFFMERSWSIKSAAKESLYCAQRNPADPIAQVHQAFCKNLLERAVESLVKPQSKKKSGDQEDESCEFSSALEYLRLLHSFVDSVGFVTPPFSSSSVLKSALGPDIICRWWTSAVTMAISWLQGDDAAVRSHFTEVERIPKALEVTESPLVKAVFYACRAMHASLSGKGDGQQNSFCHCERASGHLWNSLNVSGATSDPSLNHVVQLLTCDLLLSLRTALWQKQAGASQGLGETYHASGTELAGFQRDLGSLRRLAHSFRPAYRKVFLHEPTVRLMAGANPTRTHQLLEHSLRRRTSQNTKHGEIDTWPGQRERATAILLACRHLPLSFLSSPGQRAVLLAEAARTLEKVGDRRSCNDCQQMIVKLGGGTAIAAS
Experiment: Western blot analysis of endogenous SREBP-2 and SCAP in CHO-K1 cells
Type: cell-based
Conditions: FIG. 6B; for protein levels of precursor and mature forms of SREBP-2 and of SCAP: CHO-K1 cells, lipid-free medium, 24 h
Method: 25(OH)D3 and KK-052 decreased the protein levels of both precursor and mature forms of SREBP-2, as well as SCAP. (CHO-K1 cells were treated with the compound in a lipid-free medium for 24 h); (C) Western blot analysis of SCAP: CHO-K1 cells expressing FLAG-tagged SCAP were treated with the compound in a lipid-free medium for 24 h and immunoblots were performed with an anti-FLAG antibody.
The effects of KK-052 (50) on SREBP and SCAP by gene reporter assay and Western blot analysis were verified. […] Overall, the results were consistent with the effects of KK-052 in vivo.

Compound | effect on endogenous SREBP and SCAP levels at 1 μM (1 μM concentration) | protein levels of precursor and mature forms of SREBP-2 and of SCAP (listed as KK-052) | protein levels of precursor and mature forms of SREBP-2 and of SCAP
C[C@H](CCC(F)(F)C(C)(C)O)[C@H]1CC[C@H]2/C(=C/Cn3nnnc3-c3ccccc3)CCC[C@]12C [Compound 50, (R)-3,3-Difluoro-2-methyl-6-{(1R,3aS,7aR,E)-7a-methyl-4-[2-(5-phenyl-1H-tetrazol-1-yl)ethylidene]octahydro-1H-inden-1-yl}heptan-2-ol] | less evident | decreased; also recorded: decreasing the level | 
C=C1CC[C@H](O)C/C1=C/C=C1\CCC[C@]2(C)[C@@H]([C@H](C)CCCC(C)(C)O)CC[C@@H]12 [25(OH)D3, 25-hydroxyvitamin D3, reference compound] |  |  | decreased

Source: patent publication US11932595B2, “VDR-silent vitamin D derivative as inhibitors of SREBP and pharmaceutical use thereof” (KYOTO UNIVERSITY, priority 2020, dated 2024)
